Assay results reported in US20230085307A1, “PYRIDAZINONE COMPOUND AND HERBICIDE” (NISSAN CHEMICAL CORPORATION, priority 2019, published 2023).

System: windgrass
Test: Test Example 4: herbicidal effect by soil treatment (Table 19, symbol L)
Type: in vivo, windgrass (Apera spica-venti)
Conditions: amount of applied herbicide 320 g/ha
Procedure, shortened: (§1)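 Soil-surface application: an emulsion agent diluted with water to the predetermined dose is sprayed uniformly over seeds lying under roughly 1.5 cm of sterilized diluvial soil. Boxes stay in a greenhouse at 25° C. to 30° C. Three weeks later, each species is graded on previously defined criteria.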

Row | SMILES | herbicidal effect rating, L: windgrass
1 | CCCC(=O)Oc1c(C)nn(C)c(=O)c1-c1c(-c2ccc(OCC)nc2)sc2ccccc12 [1-077] | 0 (Herbicidal rate of 5% or less (almost no effect))

System: velvetleaf
Test: Test Example 5: herbicidal effect by foliage application, plastic box (Table 20, symbol M)
Type: in vivo, velvetleaf (Abutilon theophrasti)
Conditions: foliage application, 320 g/ha, three weeks after application
Procedure, shortened: (§2)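 Sow seeds spot-wise in sterilized diluvial soil; cover with ~1.5 cm soil. Grow 14 days in greenhouse, 25° C. to 30° C. Spray foliage with emulsion diluted to predetermined amount. Rate effect after 3 weeks.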

Row | SMILES | herbicidal effect grade, M: velvetleaf
2 | CCCC(=O)Oc1c(C)nn(C)c(=O)c1-c1c(-c2ccc(OCC)nc2)sc2ccccc12 [1-077] | 4 (Herbicidal rate of 70% or more and less than 90%)

System: velvetleaf
Test: Test Example 4: herbicidal effect by soil treatment (Table 19, symbol M)
Type: in vivo, velvetleaf (Abutilon theophrasti)
Conditions: amount of applied herbicide 320 g/ha
Procedure, shortened: as §1

Row | SMILES | herbicidal effect rating, M: velvetleaf
3 | CCCC(=O)Oc1c(C)nn(C)c(=O)c1-c1c(-c2ccc(OCC)nc2)sc2ccccc12 [1-077] | 0 (Herbicidal rate of 5% or less (almost no effect))

System: Chinese sprangletop
Test: Test Example 3: herbicidal effect by foliage application, Wagner pot (Table 18, symbol D)
Type: in vivo, chinese sprangletop (Leptochloa chinensis)
Conditions: 320 g/ha
Procedure, shortened: (§3)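 Plants were sown in alluvial soil held under 0.1–0.5 cm standing water and grown 14 days in a greenhouse at 25–30 °C. An emulsifiable formulation, water-diluted to the set dose, was then sprayed onto the foliage, and effects were scored three weeks later using previously defined criteria.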

Row | SMILES | herbicidal effect on D (Chinese sprangletop), rating 0-5
4 | CCCC(=O)Oc1c(C)nn(C)c(=O)c1-c1c(-c2ccc(OCC)nc2)sc2ccccc12 [1-077] | 1 (Herbicidal rate of 5% or more and less than 20%)

System: redroot pigweed
Test: Test Example 4: herbicidal effect by soil treatment (Table 19, symbol N)
Type: in vivo, redroot pigweed (Amaranthus retroflexus)
Conditions: amount of applied herbicide 320 g/ha
Procedure, shortened: as §1

Row | SMILES | herbicidal effect rating, N: redroot pigweed
5 | CCCC(=O)Oc1c(C)nn(C)c(=O)c1-c1c(-c2ccc(OCC)nc2)sc2ccccc12 [1-077] | 0 (Herbicidal rate of 5% or less (almost no effect))

System: Italian ryegrass
Test: Test Example 4: herbicidal effect by soil treatment (Table 19, symbol K)
Type: in vivo, Italian ryegrass (Lolium multiflorum)
Conditions: amount of applied herbicide 320 g/ha
Procedure, shortened: as §1

Row | SMILES | herbicidal effect rating, K: Italian ryegrass
6 | CCCC(=O)Oc1c(C)nn(C)c(=O)c1-c1c(-c2ccc(OCC)nc2)sc2ccccc12 [1-077] | 0 (Herbicidal rate of 5% or less (almost no effect))

System: redroot pigweed
Test: Test Example 5: herbicidal effect by foliage application, plastic box (Table 20, symbol N)
Type: in vivo, redroot pigweed (Amaranthus retroflexus)
Conditions: foliage application, 320 g/ha, three weeks after application
Procedure, shortened: as §2

Row | SMILES | herbicidal effect grade, N: redroot pigweed
7 | CCCC(=O)Oc1c(C)nn(C)c(=O)c1-c1c(-c2ccc(OCC)nc2)sc2ccccc12 [1-077] | 0 (Herbicidal rate of 5% or less (almost no effect))

System: Italian ryegrass
Test: Test Example 5: herbicidal effect by foliage application, plastic box (Table 20, symbol K)
Type: in vivo, Italian ryegrass (Lolium multiflorum)
Conditions: foliage application, 320 g/ha, three weeks after application
Procedure, shortened: as §2

Row | SMILES | herbicidal effect grade, K: Italian ryegrass
8 | CCCC(=O)Oc1c(C)nn(C)c(=O)c1-c1c(-c2ccc(OCC)nc2)sc2ccccc12 [1-077] | 1 (Herbicidal rate of 5% or more and less than 20%)

System: lambsquarters
Test: Test Example 5: herbicidal effect by foliage application, plastic box (Table 20, symbol O)
Type: in vivo, lambsquarters (Chenopodium album)
Conditions: foliage application, 320 g/ha, three weeks after application
Procedure, shortened: as §2

Row | SMILES | herbicidal effect grade, O: lambsquarters
9 | CCCC(=O)Oc1c(C)nn(C)c(=O)c1-c1c(-c2ccc(OCC)nc2)sc2ccccc12 [1-077] | 0 (Herbicidal rate of 5% or less (almost no effect))

System: wild oat
Test: Test Example 5: herbicidal effect by foliage application, plastic box (Table 20, symbol I)
Type: in vivo, wild oat (Avena fatua)
Conditions: foliage application, 320 g/ha, three weeks after application
Procedure, shortened: as §2

Row | SMILES | herbicidal effect grade, I: wild oat
10 | CCCC(=O)Oc1c(C)nn(C)c(=O)c1-c1c(-c2ccc(OCC)nc2)sc2ccccc12 [1-077] | 1 (Herbicidal rate of 5% or more and less than 20%)

System: chickweed
Test: Test Example 5: herbicidal effect by foliage application, plastic box (Table 20, symbol P)
Type: in vivo, common chickweed (Stellaria media)
Conditions: foliage application, 320 g/ha, three weeks after application
Procedure, shortened: as §2

Row | SMILES | herbicidal effect grade, P: chickweed
11 | CCCC(=O)Oc1c(C)nn(C)c(=O)c1-c1c(-c2ccc(OCC)nc2)sc2ccccc12 [1-077] | 3 (Herbicidal rate of 40% or more and less than 70%)

System: blackgrass
Test: Test Example 5: herbicidal effect by foliage application, plastic box (Table 20, symbol J)
Type: in vivo, blackgrass (Alopecurus myosuroides)
Conditions: foliage application, 320 g/ha, three weeks after application
Procedure, shortened: as §2

Row | SMILES | herbicidal effect grade, J: blackgrass
12 | CCCC(=O)Oc1c(C)nn(C)c(=O)c1-c1c(-c2ccc(OCC)nc2)sc2ccccc12 [1-077] | 1 (Herbicidal rate of 5% or more and less than 20%)

System: southern crabgrass
Test: Test Example 5: herbicidal effect by foliage application, plastic box (Table 20, symbol F)
Type: in vivo, southern crabgrass (Digitaria ciliaris)
Conditions: foliage application, 320 g/ha, three weeks after application
Procedure, shortened: as §2

Row | SMILES | herbicidal effect grade, F: southern crabgrass
13 | CCCC(=O)Oc1c(C)nn(C)c(=O)c1-c1c(-c2ccc(OCC)nc2)sc2ccccc12 [1-077] | 0 (Herbicidal rate of 5% or less (almost no effect))

System: windgrass
Test: Test Example 5: herbicidal effect by foliage application, plastic box (Table 20, symbol L)
Type: in vivo, windgrass (Apera spica-venti)
Conditions: foliage application, 320 g/ha, three weeks after application
Procedure, shortened: as §2

Row | SMILES | herbicidal effect grade, L: windgrass
14 | CCCC(=O)Oc1c(C)nn(C)c(=O)c1-c1c(-c2ccc(OCC)nc2)sc2ccccc12 [1-077] | 0 (Herbicidal rate of 5% or less (almost no effect))

System: blackgrass
Test: Test Example 4: herbicidal effect by soil treatment (Table 19, symbol J)
Type: in vivo, blackgrass (Alopecurus myosuroides)
Conditions: amount of applied herbicide 320 g/ha
Procedure, shortened: as §1

Row | SMILES | herbicidal effect rating, J: blackgrass
15 | CCCC(=O)Oc1c(C)nn(C)c(=O)c1-c1c(-c2ccc(OCC)nc2)sc2ccccc12 [1-077] | 0 (Herbicidal rate of 5% or less (almost no effect))

System: green foxtail
Test: Test Example 5: herbicidal effect by foliage application, plastic box (Table 20, symbol G)
Type: in vivo, green foxtail (Setaria viridis)
Conditions: foliage application, 320 g/ha, three weeks after application
Procedure, shortened: as §2

Row | SMILES | herbicidal effect grade, G: green foxtail
16 | CCCC(=O)Oc1c(C)nn(C)c(=O)c1-c1c(-c2ccc(OCC)nc2)sc2ccccc12 [1-077] | 1 (Herbicidal rate of 5% or more and less than 20%)

System: barnyard grass
Test: Test Example 4: herbicidal effect by soil treatment (Table 19, symbol H)
Type: in vivo, barnyard grass (Echinochloa crus-galli)
Conditions: amount of applied herbicide 320 g/ha
Procedure, shortened: as §1

Row | SMILES | herbicidal effect rating, H: barnyard grass
17 | CCCC(=O)Oc1c(C)nn(C)c(=O)c1-c1c(-c2ccc(OCC)nc2)sc2ccccc12 [1-077] | 0 (Herbicidal rate of 5% or less (almost no effect))

System: barnyard grass
Test: Test Example 5: herbicidal effect by foliage application, plastic box (Table 20, symbol H)
Type: in vivo, barnyard grass (Echinochloa crus-galli)
Conditions: foliage application, 320 g/ha, three weeks after application
Procedure, shortened: as §2

Row | SMILES | herbicidal effect grade, H: barnyard grass
18 | CCCC(=O)Oc1c(C)nn(C)c(=O)c1-c1c(-c2ccc(OCC)nc2)sc2ccccc12 [1-077] | 2 (Herbicidal rate of 20% or more and less than 40%)

System: rice flat sedge
Test: Test Example 3: herbicidal effect by foliage application, Wagner pot (Table 18, symbol E)
Type: in vivo, rice flat sedge (Cyperus iria)
Conditions: 320 g/ha
Procedure, shortened: as §3

Row | SMILES | herbicidal effect on E (rice flat sedge), rating 0-5
19 | CCCC(=O)Oc1c(C)nn(C)c(=O)c1-c1c(-c2ccc(OCC)nc2)sc2ccccc12 [1-077] | 4 (Herbicidal rate of 70% or more and less than 90%)

System: green foxtail
Test: Test Example 4: herbicidal effect by soil treatment (Table 19, symbol G)
Type: in vivo, green foxtail (Setaria viridis)
Conditions: amount of applied herbicide 320 g/ha
Procedure, shortened: as §1

Row | SMILES | herbicidal effect rating, G: green foxtail
20 | CCCC(=O)Oc1c(C)nn(C)c(=O)c1-c1c(-c2ccc(OCC)nc2)sc2ccccc12 [1-077] | 0 (Herbicidal rate of 5% or less (almost no effect))

System: southern crabgrass
Test: Test Example 4: herbicidal effect by soil treatment (Table 19, symbol F)
Type: in vivo, southern crabgrass (Digitaria ciliaris)
Conditions: amount of applied herbicide 320 g/ha
Procedure, shortened: as §1

Row | SMILES | herbicidal effect rating, F: southern crabgrass
21 | CCCC(=O)Oc1c(C)nn(C)c(=O)c1-c1c(-c2ccc(OCC)nc2)sc2ccccc12 [1-077] | 0 (Herbicidal rate of 5% or less (almost no effect))

System: persian speedwell
Test: Test Example 5: herbicidal effect by foliage application, plastic box (Table 20, symbol R)
Type: in vivo, Persian speedwell (Veronica persica)
Conditions: foliage application, 320 g/ha, three weeks after application
Procedure, shortened: as §2

Row | SMILES | herbicidal effect grade, R: persian speedwell
22 | CCCC(=O)Oc1c(C)nn(C)c(=O)c1-c1c(-c2ccc(OCC)nc2)sc2ccccc12 [1-077] | 5 (Herbicidal rate of 90% or more (almost completely withered))

System: wild oat
Test: Test Example 4: herbicidal effect by soil treatment (Table 19, symbol I)
Type: in vivo, wild oat (Avena fatua)
Conditions: amount of applied herbicide 320 g/ha
Procedure, shortened: as §1

Row | SMILES | herbicidal effect rating, I: wild oat
23 | CCCC(=O)Oc1c(C)nn(C)c(=O)c1-c1c(-c2ccc(OCC)nc2)sc2ccccc12 [1-077] | 0 (Herbicidal rate of 5% or less (almost no effect))

System: chickweed
Test: Test Example 4: herbicidal effect by soil treatment (Table 19, symbol P)
Type: in vivo, common chickweed (Stellaria media)
Conditions: amount of applied herbicide 320 g/ha
Procedure, shortened: as §1

Row | SMILES | herbicidal effect rating, P: chickweed
24 | CCCC(=O)Oc1c(C)nn(C)c(=O)c1-c1c(-c2ccc(OCC)nc2)sc2ccccc12 [1-077] | 4 (Herbicidal rate of 70% or more and less than 90%)

System: barnyard grass
Test: Test Example 3: herbicidal effect by foliage application, Wagner pot (Table 18, symbol H)
Type: in vivo, barnyard grass (Echinochloa crus-galli)
Conditions: 320 g/ha
Procedure, shortened: as §3

Row | SMILES | herbicidal effect on H (barnyard grass), rating 0-5
25 | CCCC(=O)Oc1c(C)nn(C)c(=O)c1-c1c(-c2ccc(OCC)nc2)sc2ccccc12 [1-077] | 4 (Herbicidal rate of 70% or more and less than 90%)

System: lambsquarters
Test: Test Example 4: herbicidal effect by soil treatment (Table 19, symbol O)
Type: in vivo, lambsquarters (Chenopodium album)
Conditions: amount of applied herbicide 320 g/ha
Procedure, shortened: as §1

Row | SMILES | herbicidal effect rating, O: lambsquarters
26 | CCCC(=O)Oc1c(C)nn(C)c(=O)c1-c1c(-c2ccc(OCC)nc2)sc2ccccc12 [1-077] | 0 (Herbicidal rate of 5% or less (almost no effect))

System: persian speedwell
Test: Test Example 4: herbicidal effect by soil treatment (Table 19, symbol R)
Type: in vivo, Persian speedwell (Veronica persica)
Conditions: amount of applied herbicide 320 g/ha
Procedure, shortened: as §1

Row | SMILES | herbicidal effect rating, R: persian speedwell
27 | CCCC(=O)Oc1c(C)nn(C)c(=O)c1-c1c(-c2ccc(OCC)nc2)sc2ccccc12 [1-077] | 4 (Herbicidal rate of 70% or more and less than 90%)
